Experimental data reported in article PMC7413516, “Antidepressant-like activity and safety profile evaluation of 1H-imidazo[2,1-f]purine-2,4(3H,8H)-dione derivatives as 5-HT1A receptor partial agonists” (PLoS ONE, 2020).
Where “and” joins values, the source holds several entries; their conditions need not be identical. Identical values can stand only once. Values belong to the compound of their own block, whether it stands above or below them.

Tests used:
[1] = Liver, kidney and heart weight after repeated administration; type: in vivo, Swiss albino mice; conditions: mice, AZ-853 0.625 mg/kg, AZ-861 1.25 mg/kg
Experimental: (§1) The Swiss albino mice were used in the experiment. AZ-853 and AZ-861 were injected once daily for 16 consecutive days. On the 1st and 15th day the administration of the compounds, 18-h spontaneous animal activity was registered (see below). FST, as described earlier, was performed on the 14th day just before the next treatment. To ensure that the effects observed in FST are not the result of increased motility of animals, on the 13th day, just before the next administration, the locomotor activity was measured as described earlier, from 2 to 6 min after test start, i.e. in the period identical to the duration of FST. Blood and organ collection was performed on the 17th day at 24 h after the last dose and fasting.
The body weight was measured daily immediately prior to administration of the drugs. On the 17th day, the blood was collected from the Swiss albino mice sacrificed by decapitation 20 min after i.p. administration of heparin (2500 units/mouse) and then centrifuged at 600 × g (15 min, 4°C) to separate plasma. The liver, heart, and kidney were also collected and weighed.

[2] = test system: mice; assay: Locomotor activity (Opto M3 activity monitor) in mice; type: in vivo, Swiss albino mice; conditions: for effect on spontaneous locomotor activity, acute administration: 4 min period identical to FST, AZ-853 0.625, 1.25, 2.5 mg/kg, AZ-861 1.25 mg/kg, WAY-100635 0.3 mg/kg alone or combined; for Number of movements (individual animals): raw data
From the text: The investigated compounds AZ-853 (8-(4-(4-(2-fluorophenyl)piperazin-1-yl)butyl)-1,3-dimethyl-1H-imidazo[2,1-f]purine-2,4(3H,8H)-dione and AZ-861 (1,3-dimethyl-8-(4-(4-(3-(trifluoromethyl)phenyl)piperazin-1-yl)butyl)-1H-imidazo[2,1-f]purine-2,4(3H,8H)-dione) were synthesised in the Department of Medicinal Chemistry, Faculty of Pharmacy, Jagiellonian University, and their synthesis was described earlier. AZ-853 and AZ-861 were suspended in 1% aqueous solution of Tween 80, and WAY-100635 (Sigma, Germany) was dissolved in 0.9% saline. In acute experiments, the selected compounds AZ-853 (0.156–2.5 mg/kg) and AZ-861 (0.625–2.5 mg/kg) were injected i.p. once 60 min before tests, whereas WAY-100635 (0.3 mg/kg) was administered subcutaneously (s.c.) 45 min before the test. […] In chronic experiments, AZ-853 and AZ-861 were administered i.p. once a day (between 9:00 AM and 10:00 AM) for 16 consecutive days at the minimum active doses selected from FST experiment, i.e. 0.625 and 1.25 mg/kg, respectively. […]. The control groups received 1% aqueous solution of Tween 80.
Locomotor activity was recorded with an Opto M3 multi-channel activity monitor (MultiDevice Software v.1.3, Columbus Instruments). The Swiss albino mice were individually placed in plastic cages (220 × 120 × 130 mm) for 30 min habituation period, and then the crossings of each channel (ambulation) were counted from […] to 6 min, that is the time equal to the observation period in FST. The cages were cleaned up with 70% ethanol after each mouse.
as §1, with “[…].” for “On the 1st and 15th day the administration of the compounds, 18-h spontaneous animal activity was registered (see below).”

[3] = test system: PDE4B; design: method as in PMID 27353547; conditions: in vitro, bioluminescent detection system; ref [8]; cited from earlier work
[4] = Plasma ALAT and γ-GTP activity after repeated administration; type: in vivo, Swiss albino mice; conditions: mice, AZ-853 0.625, AZ-861 1.25 mg/kg b.w./day
Experimental: as §1
Blood samples were collected from the Swiss albino mice 24 h after the last administration of the tested compounds or vehicle. To determine glucose, cholesterol and triglyceride levels in the plasma, standard enzymatic spectrophotometric tests (Biomaxima S.A. Lublin, Poland) were used. In the presence of appropriate enzyme, the substrate was converted to a colored compound. Absorbance was measured at a wavelength of 500 nm. To determine alanine aminotransferase (ALAT) or γ-glutamyl transpeptidase (γ-GTP) activities in the plasma, the standard enzymatic spectrophotometric test (Biomaxima S.A.) was used. Absorbance was measured at 340 nm (ALAT) or 405 nm (γ-GTP).

[5] = target: T1, histaminic H1 receptor (H1R) (Cavia porcellus, UniProt P31389); assay: Smooth muscle relaxant assay: histamine-induced contraction of isolated guinea pig ileum; conditions: isolated guinea pig small intestine, histamine 2 μM
T1 construct: from tissue; host or cells: isolated guinea pig ileum
T1 sequence (P31389 whole entry): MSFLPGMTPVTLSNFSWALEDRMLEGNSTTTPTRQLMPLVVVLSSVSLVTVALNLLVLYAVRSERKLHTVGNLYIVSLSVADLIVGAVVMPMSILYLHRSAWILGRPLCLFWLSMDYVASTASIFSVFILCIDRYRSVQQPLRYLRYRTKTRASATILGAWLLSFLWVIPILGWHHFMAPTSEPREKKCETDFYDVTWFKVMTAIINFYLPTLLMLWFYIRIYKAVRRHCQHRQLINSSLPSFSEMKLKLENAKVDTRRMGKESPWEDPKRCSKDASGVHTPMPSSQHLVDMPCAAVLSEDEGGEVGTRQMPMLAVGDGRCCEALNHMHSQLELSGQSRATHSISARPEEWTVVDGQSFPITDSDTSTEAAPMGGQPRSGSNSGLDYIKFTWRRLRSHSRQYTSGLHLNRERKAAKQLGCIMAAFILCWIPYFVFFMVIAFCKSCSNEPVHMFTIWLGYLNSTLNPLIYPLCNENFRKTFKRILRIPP
Experimental: The experiment was carried out according to the method described previously. Male guinea pigs were sacrificed by cervical dislocation. The ileum was rapidly removed, rinsed, and cut into segments of 1.5–2.0 cm length. The tissues were mounted on a jacketed 20 mL organ bath (Tissue Organ Bath System; 750 TOBS, DMT, Denmark) filled with Krebs’s solution (NaCl 120 mM, KCl 5.6 mM, MgCl2 2.2 mM, CaCl2 2.4 mM, NaHCO3 19 mM, glucose 10 mM). The bath was aerated with 95 % O2/5 % CO2 and heated at 37°C. During the 60-min incubation period, the organ was rinsed 4 times with fresh Krebs’s buffer, and the tissues were also pre-stimulated by 60 mM KCl solution. The submaximal contraction induced by histamine (Sigma Aldrich) (2 μM) and carbachol (Sigma Aldrich) (100 μM) was evaluated in the presence and absence of the tested compounds. Amplitudes of contraction values were measured in 4 independent experiments.

[6] = test system: 5-HT1AR; design: method as in PMID 27353547; conditions: CHO-K1 cells, Ca2+ mobilisation; ref [8]; read-out: Kb, 5-HT1AR antagonist; cited from earlier work
[7] = acute, 1.25 mg/kg i.p., measured from 3 to 6 min

- increase of plasma γ-GTP activity [4]: approximately 435%
- inhibition at 1 µM [5]: 94.8%
SMILES: Cn1c(=O)c2c(nc3n(CCCCN4CCN(c5ccccc5F)CC4)ccn23)n(C)c1=O [AZ-853, 8-(4-(4-(2-fluorophenyl)piperazin-1-yl)butyl)-1,3-dimethyl-1H-imidazo[2,1-f]purine-2,4(3H,8H)-dione]
- effect on liver, kidney and heart weight (% of total body weight) [1]: neither AZ-853 (0.625 mg/kg) nor AZ-861 (1.25 mg/kg) influenced
- effect on spontaneous locomotor activity, acute administration [2]: did not change the behavior of the animals
- Number of movements (mean) ([2]; acute, 0.625 mg/kg i.p., measured from 3 to 6 min): 127.8
- Number of movements (individual animals) ([2]; acute, 0.625 mg/kg, 3 to 6 min): 130 and 222 and 166 and 48 and 117 and 84
- Number of movements (mean) [2, 7]: 149.8
- Number of movements (individual animals) ([2]; acute, 1.25 mg/kg, 3 to 6 min): 200 and 171 and 90 and 115 and 119 and 204
- Number of movements (mean) ([2]; acute, 2.5 mg/kg i.p., measured from 3 to 6 min): 156.8
- Number of movements (individual animals) ([2]; acute, 2.5 mg/kg, 3 to 6 min): 116 and 258 and 120 and 200 and 205 and 42
- Number of movements (mean) ([2]; repeated, 0.625 mg/kg, 24 h after 12th administration, during 4 min): 519.5
- Number of movements (individual animals) ([2]; repeated, 0.625 mg/kg): 820 and 399 and 687 and 223 and 606 and 272 and 558 and 551 and 418 and 661
- PDE4B inhibitory activity [3]: did not induce PDE4B and PDE10A inhibitory activity
- plasma ALAT activity vs. control [4]: did not lead to significant changes in ALAT activity
- Kb [6]: 2.7 nM

- increase of plasma γ-GTP activity [4]: did not change activity
- inhibition at 1 µM [5]: 99.8%
SMILES: Cn1c(=O)c2c(nc3n(CCCCN4CCN(c5cccc(C(F)(F)F)c5)CC4)ccn23)n(C)c1=O [AZ-861, 1,3-dimethyl-8-(4-(4-(3-(trifluoromethyl)phenyl)piperazin-1-yl)butyl)-1H-imidazo[2,1-f]purine-2,4(3H,8H)-dione]
- effect on liver, kidney and heart weight (% of total body weight) [1]: neither AZ-853 (0.625 mg/kg) nor AZ-861 (1.25 mg/kg) influenced
- effect on spontaneous locomotor activity, acute administration [2]: did not change the behavior of the animals
- Number of movements (mean) [2, 7]: 167.3
- Number of movements (individual animals) ([2]; acute, 1.25 mg/kg, 3 to 6 min): 185 and 251 and 120 and 156 and 217 and 91 and 151
- Number of movements (mean) ([2]; repeated, 1.25 mg/kg, 24 h after 12th administration, during 4 min): 513.9
- Number of movements (individual animals) ([2]; repeated, 1.25 mg/kg): 418 and 521 and 595 and 467 and 633 and 454 and 778 and 245
- PDE4B inhibitory activity [3]: did not induce PDE4B and PDE10A inhibitory activity
- plasma ALAT activity vs. control [4]: did not lead to significant changes in ALAT activity
- Kb [6]: 1.4 nM
